# Read-outs that look alike come from different tables or passages of the source.
# Test system: viable spores of Geobacillus stearothermophilus
# Conditions: for growth results for biological indicators: dose 8 mL, seven BIs, seven-day incubation, no growth = 6-Log CFU reduction
# Experimental: In general, for each of the experiments, a respective amount of gas is circulated in a chamber interior containing Bls (in these experiments, seven Bls) for a respective amount of time. Then, after removing the gas from the chamber interior, the Bls are tested to determine whether the desired CFU reduction was achieved.
# One example method of determining whether the desired CFU reduction was achieved is by removing the Bls from the chamber interior after circulating a particular amount of gas for a particular amount of time, and incubating the Bls in a growth-promoting medium for seven days.
# In this example, the seven Bls of FIG. 3 may be in one or more locations in the chamber interior (e.g., with at least some in locations that are relatively difficult to decontaminate in the chamber interior). The Bls may be inoculated with viable spores of Geobacillus stearothermophilus, for example, or another suitable type of thermophile bacteria. The D-value of the Bls may be provided by the manufacturer of the Bls and may be, for example, 0.25 minutes, 0.5 minutes, 1 minutes, 1.5 minutes, 2 minutes, 2.5 minutes, or any other suitable D-value.
compound,measurement,setting,value
"OO [gas, hydrogen peroxide]",growth-no growth behavior with respect to time,10 mL amount of gas compared with 8 mL amount of gas,identical
same,growth results for biological indicators,gas circulated for 100 seconds,all but one BI (BI #4) achieving no growth
same,growth results for biological indicators,gas circulated for 300 seconds,no growth for all seven Bls
same,growth results for biological indicators,gas circulated for 500 seconds,no growth for all seven Bls
